Results reported in PMC8121815 (Nature Communications, 2021).

What was measured:
hTOM70/N-peptide complex = hTOM70/N-peptide complex (Homo sapiens, UniProt O94826); assay type: binding
[1] = target: T1, unliganded hTOM70 (cytoplasmic segment of human TOM70) (human); assay: ITC
T1 sequence (O94826 whole entry, looked up): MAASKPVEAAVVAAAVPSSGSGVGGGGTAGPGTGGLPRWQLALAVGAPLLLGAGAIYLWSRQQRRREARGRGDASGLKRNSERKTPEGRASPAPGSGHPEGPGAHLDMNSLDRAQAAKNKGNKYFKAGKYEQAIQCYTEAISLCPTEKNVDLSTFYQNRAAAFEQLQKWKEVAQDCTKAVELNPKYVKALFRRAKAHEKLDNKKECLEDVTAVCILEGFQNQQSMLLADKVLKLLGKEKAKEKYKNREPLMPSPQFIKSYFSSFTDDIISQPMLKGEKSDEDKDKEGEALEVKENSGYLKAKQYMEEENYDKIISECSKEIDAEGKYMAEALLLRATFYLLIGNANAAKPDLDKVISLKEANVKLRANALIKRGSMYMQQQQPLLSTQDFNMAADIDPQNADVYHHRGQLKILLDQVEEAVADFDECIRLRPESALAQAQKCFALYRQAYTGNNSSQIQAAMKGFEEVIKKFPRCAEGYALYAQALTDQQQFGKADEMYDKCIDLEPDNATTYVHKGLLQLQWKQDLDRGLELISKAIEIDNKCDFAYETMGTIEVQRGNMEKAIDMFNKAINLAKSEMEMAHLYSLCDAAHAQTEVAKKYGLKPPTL

[2] = target: T2, SARS-CoV-2 orf9b with an N-terminal His-tag, co-expressed with hTOM70 (SARS-CoV-2, UniProt P0DTD2 1-97); assay: SEC + AUC; conditions: both partners purified
T2 construct: also called intact orf9b
T2 sequence (P0DTD2 whole entry): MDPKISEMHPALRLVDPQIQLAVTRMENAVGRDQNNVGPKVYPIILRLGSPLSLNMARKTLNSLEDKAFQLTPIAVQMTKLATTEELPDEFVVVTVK

CC[C@H](C)[C@H](N)C(=O)N[C@H](C(=O)N[C@@H](CC(C)C)C(=O)N[C@@H](CCCNC(=N)N)C(=O)N[C@@H](CC(C)C)C(=O)NCC(=O)N[C@@H](CO)C(=O)N1CCC[C@H]1C(=O)N[C@@H](CC(C)C)C(=O)N[C@@H](CO)C(=O)N[C@@H](CC(C)C)C(=O)N[C@@H](CC(N)=O)C(=O)N[C@@H](CCSC)C(=O)N[C@@H](C)C(=O)N[C@@H](CCCNC(=N)N)C(=O)N[C@@H](CCCCN)C(=O)N[C@H](C(=O)N[C@@H](CC(C)C)C(=O)N[C@@H](CC(N)=O)C(=O)N[C@@H](CO)C(=O)N[C@@H](CC(C)C)C(=O)N[C@@H](CCC(=O)O)C(=O)N[C@@H](CC(=O)O)C(=O)N[C@@H](CCCCN)C(=O)N[C@@H](C)C(=O)N[C@@H](Cc1ccccc1)C(=O)N[C@@H](CCC(N)=O)C(=O)O)[C@@H](C)O)[C@@H](C)CC [C-peptide]
ΔH, enthalpy variation (hTOM70/N-peptide complex): 0.981 ± 0.024 kcal/mol | ΔS, entropy variation (hTOM70/N-peptide complex): 32.5

C-peptide (SARS-CoV-2 orf9b core sequence 44-70) (from UniProt P0DTD2 44-70)
dH [1]: 2.65 kcal/mol

B1: hTOM70 ΔN2 (106-608), co-expressed with orf9b (domain or fragment, human, UniProt O94826 106-608, looked up)
chain: LDMNSLDRAQAAKNKGNKYFKAGKYEQAIQCYTEAISLCPTEKNVDLSTFYQNRAAAFEQLQKWKEVAQDCTKAVELNPKYVKALFRRAKAHEKLDNKKECLEDVTAVCILEGFQNQQSMLLADKVLKLLGKEKAKEKYKNREPLMPSPQFIKSYFSSFTDDIISQPMLKGEKSDEDKDKEGEALEVKENSGYLKAKQYMEEENYDKIISECSKEIDAEGKYMAEALLLRATFYLLIGNANAAKPDLDKVISLKEANVKLRANALIKRGSMYMQQQQPLLSTQDFNMAADIDPQNADVYHHRGQLKILLDQVEEAVADFDECIRLRPESALAQAQKCFALYRQAYTGNNSSQIQAAMKGFEEVIKKFPRCAEGYALYAQALTDQQQFGKADEMYDKCIDLEPDNATTYVHKGLLQLQWKQDLDRGLELISKAIEIDNKCDFAYETMGTIEVQRGNMEKAIDMFNKAINLAKSEMEMAHLYSLCDAAHAQTEVAKKYGLKPPTL
notes: also called TOM70 (106-608); cytosolic domain of hTOM70
stoichiometry N [2]: 1
